Reference: patent publication US20070054353A1, “Nuclear receptor transcriptional corepressor and uses thereof” (priority 2002, published 2007)

Key:
[1] = molecular target: T1, PR (Homo sapiens, UniProt P06401); experiment: Transient transfection luciferase reporter, PR transactivation in COS-7 cells; type: cell-based; conditions: TSA 3 μM, COS-7 cells
T1 construct: expressed in transfected cells; host or cells: COS-7
T1 sequence (P06401 1-933): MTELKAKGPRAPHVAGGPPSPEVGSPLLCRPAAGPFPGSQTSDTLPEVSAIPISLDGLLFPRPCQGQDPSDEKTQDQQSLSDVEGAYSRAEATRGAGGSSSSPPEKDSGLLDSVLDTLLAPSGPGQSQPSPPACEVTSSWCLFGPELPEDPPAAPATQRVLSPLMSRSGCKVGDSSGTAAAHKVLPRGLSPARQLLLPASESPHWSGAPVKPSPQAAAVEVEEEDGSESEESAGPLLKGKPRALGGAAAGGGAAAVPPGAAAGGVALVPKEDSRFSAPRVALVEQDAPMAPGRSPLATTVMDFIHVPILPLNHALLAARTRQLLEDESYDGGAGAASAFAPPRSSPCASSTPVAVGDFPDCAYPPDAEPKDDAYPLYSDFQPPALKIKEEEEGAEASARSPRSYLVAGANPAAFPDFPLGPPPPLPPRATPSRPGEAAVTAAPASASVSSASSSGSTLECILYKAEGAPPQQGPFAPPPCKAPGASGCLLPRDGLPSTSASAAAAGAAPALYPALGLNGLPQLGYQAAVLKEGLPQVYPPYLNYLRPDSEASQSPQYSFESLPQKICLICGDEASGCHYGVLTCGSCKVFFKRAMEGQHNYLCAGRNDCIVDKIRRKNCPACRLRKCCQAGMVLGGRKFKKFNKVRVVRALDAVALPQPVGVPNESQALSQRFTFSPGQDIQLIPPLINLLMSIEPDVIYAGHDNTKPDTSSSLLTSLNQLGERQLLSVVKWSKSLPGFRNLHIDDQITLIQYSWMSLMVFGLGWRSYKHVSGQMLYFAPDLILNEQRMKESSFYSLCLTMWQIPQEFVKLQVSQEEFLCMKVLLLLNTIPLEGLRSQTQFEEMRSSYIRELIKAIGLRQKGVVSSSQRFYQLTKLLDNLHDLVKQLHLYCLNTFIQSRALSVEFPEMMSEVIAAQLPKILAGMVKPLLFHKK
Experimental: (§1) All cell lines were cultured under the recommended conditions. COS-7 cells grown in […] in DMEM without phenol red, supplemented with 10% FBS were transfected in medium without serum with lipofectamine 2000 (Invitrogen, Burlington, Ont.) with 100 ng of nuclear receptor expression vectors as indicated, 200 ng of TIF-2 or TIF-2.1, as indicated, 250 ng of reporter plasmid, 250 ng of infemal control vector pCMV-βgal, and various concentrations of LCoR/pSG5 or LCoR-LSKAA/pSG5 expression vectors and pSG5 carrier. Medium was replaced 24 h after transfection by a medium containing charcoal-stripped serum and ligand (100 nM) and TSA (3 μM) for 18 h, as indicated. Cells were harvested in 200 […] of reporter lysis buffer (Promega).
(§2) COS-7 cells were cotransfected with expression vectors for ERα HEG0 (A and C) or GR (D) or PR (F) or VDR (H), ERE3-TATA-pXP2 (A and C), GRE5/pXP2 (D and F) or VDRE3tk/pXP2 (H) luciferase reporter vectors, pCMV-β-gal as internal control, and LCoR/pSG5 or LSKAA/pSG5 expression vectors as indicated. Cells were treated with 10^−7M of hormones (solid bars) or vehicle (open bars). Normalized luciferase activities (RLU) are the means±SEM from at least 3 experiments. […] Cells were transfected as in FIG. 5A with LCoR, TIF-2 or TIF2.1 as indicated. […]

[2] = molecular target: T2, GR (Homo sapiens, UniProt P04150); experiment: Transient transfection luciferase reporter, GR transactivation in COS-7 cells; type: cell-based; conditions: TSA 3 μM, COS-7 cells
T2 construct: expressed in transfected cells; host or cells: COS-7
T2 sequence (P04150 1-777): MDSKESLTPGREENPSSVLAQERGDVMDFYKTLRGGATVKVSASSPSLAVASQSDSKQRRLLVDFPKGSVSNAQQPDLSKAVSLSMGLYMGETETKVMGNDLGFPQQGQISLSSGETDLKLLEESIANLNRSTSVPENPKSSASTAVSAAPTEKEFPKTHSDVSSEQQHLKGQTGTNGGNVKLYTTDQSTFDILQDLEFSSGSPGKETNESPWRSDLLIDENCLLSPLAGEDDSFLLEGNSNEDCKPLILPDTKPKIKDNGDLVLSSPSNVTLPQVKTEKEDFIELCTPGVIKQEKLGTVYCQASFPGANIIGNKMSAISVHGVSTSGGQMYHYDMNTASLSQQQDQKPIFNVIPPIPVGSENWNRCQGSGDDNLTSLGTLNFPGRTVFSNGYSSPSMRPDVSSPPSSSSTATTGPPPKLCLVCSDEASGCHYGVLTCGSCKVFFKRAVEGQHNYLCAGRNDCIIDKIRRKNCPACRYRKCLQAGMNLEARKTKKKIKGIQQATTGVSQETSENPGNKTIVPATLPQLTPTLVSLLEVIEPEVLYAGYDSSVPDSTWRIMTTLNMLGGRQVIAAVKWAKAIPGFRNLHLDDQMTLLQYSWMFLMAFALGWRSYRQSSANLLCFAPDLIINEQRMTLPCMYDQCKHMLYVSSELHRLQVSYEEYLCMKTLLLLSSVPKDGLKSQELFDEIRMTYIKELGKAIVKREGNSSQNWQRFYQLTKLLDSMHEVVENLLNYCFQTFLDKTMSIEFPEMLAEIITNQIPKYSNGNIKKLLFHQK
Experimental: as §1, §2

CC(/C=C/C(=O)NO)=C\[C@@H](C)C(=O)c1ccc(N(C)C)cc1 [TSA, trichostatin A]
effect on LCoR repression of PR function [1]: little or no effect
effect on LCoR-dependent repression of GR function [2]: completely abolished
